According to ChEMBL document CHEMBL4417636, “Small molecule inhibitors of pendrin ion exchange and pharmaceutical compositions” (2017):
Active and inactive are the calls of the source. No cut-off for these calls is given here.

Assays:
Pendrin (Homo sapiens) [1] = molecular target: T1, Pendrin (Homo sapiens) (UniProt O43511); test: Inhibition of human pendrin expressed in FRT cells co-expressing EYFP-HIF assessed as reduction in pendrin-mediated anion exchange at 100 uM incubated for 10 mins by pH-sensitive fluorescent probe BCECF-AM based fluorescence assay relative to control; assay type: cell-based
T1 sequence (whole entry): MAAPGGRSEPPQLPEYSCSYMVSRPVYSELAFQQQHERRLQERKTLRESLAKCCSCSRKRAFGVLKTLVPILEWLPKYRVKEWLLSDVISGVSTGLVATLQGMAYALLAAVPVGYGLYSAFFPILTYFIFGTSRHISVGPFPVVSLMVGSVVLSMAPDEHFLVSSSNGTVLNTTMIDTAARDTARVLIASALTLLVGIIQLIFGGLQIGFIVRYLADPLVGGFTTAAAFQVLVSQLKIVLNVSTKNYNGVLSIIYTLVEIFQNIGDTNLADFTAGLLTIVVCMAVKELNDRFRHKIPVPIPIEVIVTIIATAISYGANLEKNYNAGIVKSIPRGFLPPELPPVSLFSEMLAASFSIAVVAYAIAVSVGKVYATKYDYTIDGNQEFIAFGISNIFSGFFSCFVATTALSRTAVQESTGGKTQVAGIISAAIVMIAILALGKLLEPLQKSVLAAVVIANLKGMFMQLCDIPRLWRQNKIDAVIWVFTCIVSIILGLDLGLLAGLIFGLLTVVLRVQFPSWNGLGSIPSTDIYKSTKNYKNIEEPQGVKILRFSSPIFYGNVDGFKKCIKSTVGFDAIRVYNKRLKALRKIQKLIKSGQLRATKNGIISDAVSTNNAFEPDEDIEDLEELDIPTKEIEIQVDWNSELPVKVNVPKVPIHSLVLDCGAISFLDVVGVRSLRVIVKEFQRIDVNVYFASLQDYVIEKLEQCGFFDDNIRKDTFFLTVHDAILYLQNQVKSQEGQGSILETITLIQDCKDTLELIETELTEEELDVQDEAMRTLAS

Pendrin (Homo sapiens) [2] = molecular target: T1, Pendrin (Homo sapiens); test: Inhibition of human pendrin expressed in FRT cells co-expressing EYFP-HIF assessed as reduction in pendrin-mediated anion exchange at 25 uM incubated for 10 mins by pH-sensitive fluorescent probe BCECF-AM based fluorescence assay relative to control; assay type: cell-based

SMILES	inhibition (Pendrin (Homo sapiens) [1]) [%]	inhibition (Pendrin (Homo sapiens) [2])
O=C(O)c1cccnc1Nc1cccc(C(F)(F)F)c1	< 40	–
Cn1nc(COc2ccc(F)cc2)c2c1CCN(C(=O)Nc1cccc(Cl)c1)C2	–	60%
NS(=O)(=O)c1cc(C(=O)O)c(NCc2ccco2)cc1Cl	–	inactive
